# Laboratory results reported in PMC11356873, “Trolox, Ferulic, Sinapic, and Cinnamic Acid Derivatives of Proline and GABA with Antioxidant and/or Anti-Inflammatory Properties” (Molecules, 2024).
# What was measured:
# [1] = Interaction with the stable free radical DPPH; conditions: for Interaction with DPPH (in words): 25-200 μΜ; for % Interaction with DPPH / Time to completion of the reaction with DPPH: DPPH 200 μΜ; for % Interaction with DPPH: after 30 min of incubation
# Protocol: The tested compounds, dissolved in absolute ethanol at final concentrations of 25 up to 200 μΜ, were mixed with DPPH and dissolved in the same solvent at a final concentration of 200 μΜ. The absorbance at 517 nm was recorded every 5 min for 30 min [41].
# soybean lipoxygenase = biological target: T1, soybean lipoxygenase (Glycine max, UniProt P08170); assay: Soybean lipoxygenase inhibition; assay type: biochemical
# T1 construct: purchased Sigma (St. Louis, MO, USA)
# T1 sequence (P08170 1-839): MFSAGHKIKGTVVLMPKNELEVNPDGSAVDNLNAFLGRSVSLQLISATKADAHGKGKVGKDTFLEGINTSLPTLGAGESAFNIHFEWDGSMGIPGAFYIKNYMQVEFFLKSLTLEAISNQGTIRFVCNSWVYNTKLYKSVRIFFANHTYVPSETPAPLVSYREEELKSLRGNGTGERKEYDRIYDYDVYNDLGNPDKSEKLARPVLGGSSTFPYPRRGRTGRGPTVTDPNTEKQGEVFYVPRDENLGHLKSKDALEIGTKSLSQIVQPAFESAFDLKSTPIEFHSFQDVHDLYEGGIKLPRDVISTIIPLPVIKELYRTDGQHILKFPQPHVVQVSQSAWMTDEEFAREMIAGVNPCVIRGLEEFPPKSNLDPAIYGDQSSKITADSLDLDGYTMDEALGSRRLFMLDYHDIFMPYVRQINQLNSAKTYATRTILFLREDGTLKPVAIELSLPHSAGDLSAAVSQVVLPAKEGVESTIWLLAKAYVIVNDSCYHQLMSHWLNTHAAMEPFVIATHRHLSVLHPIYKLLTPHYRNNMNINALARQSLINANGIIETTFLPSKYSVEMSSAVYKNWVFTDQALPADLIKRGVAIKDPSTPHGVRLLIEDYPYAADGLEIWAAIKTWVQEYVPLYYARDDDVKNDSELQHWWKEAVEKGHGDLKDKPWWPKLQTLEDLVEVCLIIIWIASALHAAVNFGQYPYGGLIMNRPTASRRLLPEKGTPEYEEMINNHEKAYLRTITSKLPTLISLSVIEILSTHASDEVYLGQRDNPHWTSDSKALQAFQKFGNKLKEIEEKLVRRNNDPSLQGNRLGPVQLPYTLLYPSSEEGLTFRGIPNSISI
# Protocol: The reaction mixture (total volume of 3 mL) contained 100 μL of the test compounds (100 μM) or the solvent (absolute ethanol, control), 200 μL of soybean LOX (250 u/mL, in a 0.9% NaCl solution), and 2.6 mL of Tris–HCl buffer with a pH of 9.0. The reaction was initiated by the addition of 100 μL sodium linoleate (100 μM) in the sample mixture (with an equal volume of buffer added to the reference solution). The reaction was followed for 7 min at 28 °C, and the absorbance (234 nm) of a conjugated diene structure was recorded.
# Bovine serum albumin = Bovine serum albumin (Bos taurus, UniProt P02769); assay: Inhibition of fructose/copper-induced oxidative protein glycation; assay type: biochemical; conditions: concentration of 1mM, after 72 h of incubation
# Protocol: The purification of the glycation product was based on protein precipitation and washing with trichloroacetic acid (TCA). The concentration of the glycation-modified protein was estimated by fluorescence measurements (excitation of 340 nm, emission of 410 nm). Incubations performed under the same conditions, yet in the absence of fructose, were used as a control. All the fluorescence measurements were expressed relatively to the standard quinine sulphate solution (1 μg/mL).
# acetylcholinesterase = biological target: T2, acetylcholinesterase (Rattus norvegicus, UniProt P37136); assay: Acetylcholinesterase inhibition (acetylthiocholine hydrolysis, rat brain homogenate); assay type: biochemical; conditions: acetylthiocholine 0.5 mM, after 7 min of incubation
# T2 construct: mixed with brain homogenate (20 mg of tissue per mL) from untreated rats; from tissue; host or cells: rat brain homogenate
# T2 sequence (P37136 32-614): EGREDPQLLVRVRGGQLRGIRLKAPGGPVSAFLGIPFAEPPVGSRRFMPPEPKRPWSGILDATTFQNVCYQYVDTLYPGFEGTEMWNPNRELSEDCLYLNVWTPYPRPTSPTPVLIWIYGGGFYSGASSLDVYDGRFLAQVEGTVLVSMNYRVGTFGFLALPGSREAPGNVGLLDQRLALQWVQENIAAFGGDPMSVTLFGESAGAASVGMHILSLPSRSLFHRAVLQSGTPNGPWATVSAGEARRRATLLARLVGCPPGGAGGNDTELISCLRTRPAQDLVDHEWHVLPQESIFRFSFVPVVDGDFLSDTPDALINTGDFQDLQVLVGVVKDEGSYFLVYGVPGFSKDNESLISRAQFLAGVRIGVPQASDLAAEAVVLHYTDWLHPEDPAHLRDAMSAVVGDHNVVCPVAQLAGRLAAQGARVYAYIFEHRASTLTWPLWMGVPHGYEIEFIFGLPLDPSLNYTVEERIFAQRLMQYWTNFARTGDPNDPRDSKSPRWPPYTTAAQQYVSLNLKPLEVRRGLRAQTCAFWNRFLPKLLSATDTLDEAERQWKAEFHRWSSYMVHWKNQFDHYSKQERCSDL
# Protocol: The tested compounds, dissolved in 60% ethanol, were mixed with brain homogenate (20 mg of tissue per mL) from untreated rats (in 0.1 M phosphate buffer with a pH of 8) and acetylthiocholine (0.5 mM).
# [2] = tested on: lipid peroxidation of rat hepatic microsomal membranes; assay: Inhibition of lipid peroxidation of rat hepatic microsomal membranes (TBA-reactive material); conditions: for IC50, lipid peroxidation / IC50: rat hepatic microsomal membranes, after 45 min of incubation; for IC50: read-out: IC50, lipid peroxidation
# Sequence of Bovine serum albumin (P02769 25-607): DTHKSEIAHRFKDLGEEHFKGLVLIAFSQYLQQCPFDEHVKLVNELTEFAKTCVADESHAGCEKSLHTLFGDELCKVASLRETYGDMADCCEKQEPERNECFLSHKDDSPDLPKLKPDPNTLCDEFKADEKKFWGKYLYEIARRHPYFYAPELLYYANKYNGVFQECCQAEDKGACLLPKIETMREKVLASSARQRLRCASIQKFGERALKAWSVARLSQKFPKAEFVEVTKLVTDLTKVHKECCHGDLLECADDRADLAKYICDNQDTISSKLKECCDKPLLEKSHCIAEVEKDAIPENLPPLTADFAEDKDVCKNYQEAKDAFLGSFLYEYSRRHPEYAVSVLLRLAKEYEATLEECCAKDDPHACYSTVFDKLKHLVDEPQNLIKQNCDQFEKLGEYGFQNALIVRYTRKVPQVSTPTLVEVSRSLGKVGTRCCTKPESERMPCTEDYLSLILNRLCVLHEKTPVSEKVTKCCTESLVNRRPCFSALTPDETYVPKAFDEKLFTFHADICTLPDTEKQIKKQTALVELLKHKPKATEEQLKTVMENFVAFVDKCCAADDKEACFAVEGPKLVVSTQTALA
structure (smiles),measurement,setting,value
"COC(=O)CCCNC(=O)C1CCCN1C(=O)/C=C/c1ccccc1 (stereo not shown) [Compound 4c, (E)-methyl 4-(1-cinnamoylpyrrolidine-2-carboxamido)butanoate]",Interaction with DPPH (in words),[1],could not interact with DPPH at all
same,inhibition at 100 µM,soybean lipoxygenase,40%
same,% Inhibition of protein glycation,Bovine serum albumin,did not exert any inhibition and -
same,"IC50, acetylcholinesterase",acetylcholinesterase,-
same,"IC50, lipid peroxidation",[2],could not inhibit lipid peroxidation
same,IC50,[2],> 1000 µM
"COC(=O)CCCNC(=O)C1CCCN1C(=O)/C=C/c1ccc(OC)c(OC)c1 (stereo not shown) [Compound 3c, (E)-methyl 4-(1-(3-(3,4-dimethoxyphenyl)acryloyl)pyrrolidine-2-carboxamido)butanoate]",Interaction with DPPH (in words),[1],could not interact with DPPH at all
same,inhibition at 100 µM,soybean lipoxygenase,32%
same,% Inhibition of protein glycation,Bovine serum albumin,did not exert any inhibition and -
same,IC50,acetylcholinesterase,284 µM
same,"IC50, lipid peroxidation",[2],could not inhibit lipid peroxidation
same,IC50,[2],> 1000 µM
"COC(=O)CCCNC(=O)C1CCCN1C(=O)/C=C/c1cc(OC)c(O)c(OC)c1 (stereo not shown) [Compound 2c, (E)-methyl 4-(1-(3-(4-hydroxy-3,5-dimethoxyphenyl)-acryloyl)pyrrolidine-2-carboxamido)-butanoate]",% Interaction with DPPH,[1]; compound 25 μΜ,17%
same,% Interaction with DPPH,[1]; compound 50 μΜ,36%
same,% Interaction with DPPH,[1]; compound 100 μΜ,64%
same,Time to completion of the reaction with DPPH,[1]; compound 200 μΜ,completed in the first five minutes
same,% Interaction with DPPH,[1]; compound 200 μΜ,85%
same,inhibition at 100 µM,soybean lipoxygenase,40%
same,inhibition at 1000 µM,Bovine serum albumin,48%
same,IC50,acetylcholinesterase,298 µM
same,IC50,[2],290 µM
"COC(=O)CCCNC(=O)C1CCCN1C(=O)/C=C/c1ccc(O)c(OC)c1 (stereo not shown) [Compound 1c, (E)-methyl 4-(1-(3-(4-hydroxy-3-methoxyphenyl)acryloyl)pyrrolidine-2-carboxamido)butanoate]",% Interaction with DPPH,[1]; compound 25 μΜ,10%
same,% Interaction with DPPH,[1]; compound 50 μΜ,24%
same,% Interaction with DPPH,[1]; compound 100 μΜ,37%
same,Time to completion of the reaction with DPPH,[1]; compound 200 μΜ,about 15 min
same,% Interaction with DPPH,[1]; compound 200 μΜ,58%
same,inhibition at 100 µM,soybean lipoxygenase,36%
same,inhibition at 1000 µM,Bovine serum albumin,41%
same,IC50,acetylcholinesterase,219 µM
same,IC50,[2],839 µM
"N=C(N)NN [Aminoguanidine, reference compound]",% Inhibition of protein glycation,Bovine serum albumin,56%
"COC(=O)CCCNC(=O)C1CCCN1C(=O)C1(C)CCc2c(C)c(O)c(C)c(C)c2O1 (stereo not shown) [Compound 5c, Methyl 4-(1-(6-hydroxy-2,5,7,8-tetramethylchroman-2-carbonyl)pyrrolidine-2-carboxamido)-butanoate]",% Interaction with DPPH,[1]; compound 25 μΜ,28%
same,% Interaction with DPPH,[1]; compound 50 μΜ,54%
same,% Interaction with DPPH,[1]; compound 100 μΜ,87%
same,Time to completion of the reaction with DPPH,[1]; compound 200 μΜ,completed in the first five minutes
same,% Interaction with DPPH,[1]; compound 200 μΜ,89%
same,inhibition at 100 µM,soybean lipoxygenase,26%
same,inhibition at 1000 µM,Bovine serum albumin,37%
same,"IC50, acetylcholinesterase",acetylcholinesterase,could not inhibit the enzyme and no inhibitory activity and -
same,Activity against lipid peroxidation relative to Trolox,[2]; comparison of IC50 values,about three times more active than Trolox
same,IC50,[2],8 µM
"Cc1c(C)c2c(c(C)c1O)CCC(C)(C(=O)O)O2 (stereo not shown) [Trolox, 6-hydroxy-2,5,7,8-tetramethylchroman-2-carboxylic acid]",% Interaction with DPPH,[1]; compound 25 μΜ,19%
same,% Interaction with DPPH,[1]; compound 50 μΜ,38%
same,% Interaction with DPPH,[1]; compound 100 μΜ,90%
same,% Interaction with DPPH,[1]; compound 200 μΜ,92%
same,IC50,[2],25 µM
